According to patent publication US7205410B2, “4-(aminomethyl)-piperidine benzamides for treating gastrointestinal disorders” (Janssen Pharmaceutica, N.V., priority 1998, dated 2007):

Target: T1, 5HT4 (Rattus norvegicus, UniProt Q62758)
T1 construct: 5HT4 Antagonism in Rat Oesophageal Tunica Muscularis Mucosae; from tissue; host or cells: rat oesophageal tunica muscularis mucosae
T1 sequence (Q62758 whole entry): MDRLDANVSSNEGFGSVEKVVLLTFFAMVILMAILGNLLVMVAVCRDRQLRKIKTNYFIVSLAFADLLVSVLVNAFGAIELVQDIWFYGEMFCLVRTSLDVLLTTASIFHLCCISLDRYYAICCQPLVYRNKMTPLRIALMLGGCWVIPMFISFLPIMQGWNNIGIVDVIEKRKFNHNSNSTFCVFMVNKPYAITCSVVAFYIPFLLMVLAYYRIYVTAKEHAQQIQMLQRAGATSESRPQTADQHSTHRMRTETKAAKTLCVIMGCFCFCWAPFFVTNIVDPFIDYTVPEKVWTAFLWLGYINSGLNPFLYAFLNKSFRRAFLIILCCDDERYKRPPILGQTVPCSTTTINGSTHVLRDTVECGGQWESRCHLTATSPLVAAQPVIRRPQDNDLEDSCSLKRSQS
Test: 5HT4 antagonism in rat oesophageal tunica muscularis mucosae
Type: cell-based
Details: 5HT4 antagonistic data; isolated rat oesophageal tunica muscularis mucosae, method of Baxter et al.
Method: 5HT4 Antagonism in Rat Oesophageal Tunica Muscularis Mucosae
The 5HT4 antagonistic potence of the present compounds was measured as described in Baxter G. S. et. al, Naunyn-Schmiedeberg's Arch. Pharmacol., 343, 439-446 ([…]).
The pA2 value is calculated as follows: [formula]
In the case of `COC1CN(Cc2ccccc2)CCC1CNC(=O)c1cc(Cl)cc2c1OCCCO2` (stereo not shown) [Compound 132], the pA2 is reported as 8.5. Molecule `O=C(NCC1CCN(CCCOc2ccc(F)cc2)CC1O)c1cc(Cl)cc2c1OCCO2` (stereo not shown) [Compound 79] has a pA2 of 7.93. In the case of `Cl.O=C(O)CCCN1CCC(CNC(=O)c2cc(Cl)cc3c2OCCCO3)C(O)C1` (stereo not shown) [Compound 146], the pA2 is reported as 9.1. For `O=C(NCC1CCN(CCCO)CC1O)c1cc(Cl)cc2c1OCCC2` (stereo not shown) [Compound 39], the pA2 was 9.81. With `Cl.O=C(NCC1CCN(CCOCCO)CC1O)c1cc(Cl)cc2c1OCCO2` (stereo not shown) [Compound 92] the pA2 was 9.7. `O=C(NCC1CCN(Cc2ccccc2)CC1O)c1cc(Cl)cc2c1OCCC2` (stereo not shown) [Compound 41] gave a pA2 of 9.7. `COC1CN(CCCC(C)=O)CCC1CNC(=O)c1cc(Cl)cc2c1OCCCO2.O=C(O)C(=O)O` (stereo not shown) [Compound 139] showed a pA2 of 8.6. In the case of `CCCCN1CCC(CNC(=O)c2cc(Cl)cc3c2OCCCO3)C(O)C1` (stereo not shown) [Compound 119], the pA2 is reported as 10.65. In the case of `N#CCCCN1CCC(O)(CNC(=O)c2cc(Cl)cc3c2OCCCO3)CC1.O=C(O)C(=O)O` [Compound 167], the pA2 is reported as <8. With `COC1CN(Cc2ccccc2)CCC1CNC(=O)c1cc(Cl)cc2c1OCCO2` (stereo not shown) [Compound 89] the pA2 was <8. With `CCCCN1CCC(CNC(=O)c2cc(Cl)cc3c2OCCO3)C(OC)C1.O=C(O)C(=O)O` (stereo not shown) [Compound 86] the pA2 was 8.2. Molecule `CCCCN1CCC(CNC(=O)c2cc(Cl)cc3c2OCCCO3)C(OC)C1.O=C(O)C(=O)O` (stereo not shown) [Compound 131] has a pA2 of 9.5. `O=C(NCC1CCN(Cc2ccccc2)CC1O)c1cc(Cl)cc2c1OCC2` (stereo not shown) [Compound 11] gave a pA2 of 8.76. For `CCCCN1CCC(O)(CNC(=O)c2cc(Cl)cc3c2OCCO3)CC1.Cl` [Compound 100], the pA2 was <8. `O=C(NCC1CCN(CCCOc2ccc(F)cc2)CC1O)c1cc(Cl)cc2c1OCCO2.O=C(O)C(=O)O` (stereo not shown) [Compound 80] gave a pA2 of 8.83. With `CC(=O)CCCN1CCC(O)(CNC(=O)c2cc(Cl)cc3c2OCCCO3)CC1.O` [Compound 180] the pA2 was “˜7.5”. In the case of `CC(C)n1ccn(CCN2CCC(O)(CNC(=O)c3cc(Cl)cc4c3OCCO4)CC2)c1=O.O=C(O)C(=O)O` [Compound 116], the pA2 is reported as “˜8”. `O=C(NCC1CCN(CCOCCO)CC1O)c1cc(Cl)cc2c1OCCC2.O=C(O)C(=O)O` (stereo not shown) [Compound 52] showed a pA2 of 9.5. Work on `COC1CN(CCCC(C)=O)CCC1CNC(=O)c1cc(Cl)cc2c1OCCCO2.O=C(O)C(=O)O` (stereo not shown) [Compound 135] yielded a pA2 of 8.1. For `O=C(CN1CCC(CNC(=O)c2cc(Cl)cc3c2OCCO3)C(O)C1)c1ccccc1.O=C(O)C(=O)O` (stereo not shown) [Compound 78], the pA2 was 8.44. With `O=C(NCC1CCN(CCCOc2ccc(F)cc2)CC1O)c1cc(Cl)cc2c1OCCC2` (stereo not shown) [Compound 43] the pA2 was 9.8. `COCCCN1CCC(CNC(=O)c2cc(Cl)cc3c2OCC3)C(O)C1` (stereo not shown) [Compound 3] gave a pA2 of 8.07. Work on `COC1CN(CCCOc2ccc(F)cc2)CCC1CNC(=O)c1cc(Cl)cc2c1OCCO2.O=C(O)C(=O)O` (stereo not shown) [Compound 88] yielded a pA2 of 9.2. Work on `CC(=O)CCCN1CCC(CNC(=O)c2cc(Cl)cc3c2OCCCO3)C(O)C1` (stereo not shown) [Compound 121] yielded a pA2 of 9.9. In the case of `CS(=O)(=O)CCCN1CCC(O)(CNC(=O)c2cc(Cl)cc3c2OCCCO3)CC1.O` [Compound 169], the pA2 is reported as <8. Work on `CCCCN1CCC(CNC(=O)c2cc(Cl)cc3c2OCC3)C(O)C1` (stereo not shown) [Compound 1] yielded a pA2 of 8.53. In the case of `O=C(NCC1CCN(CCOCCO)CC1O)c1cc(Cl)cc2c1OCC2` (stereo not shown) [Compound 29], the pA2 is reported as 9.6. With `CCCCN1CCC(CNC(=O)c2cc(Cl)cc3c2OCC3)C(O)C1` (stereo not shown) [Compound 2] the pA2 was 10.5. In the case of `CCCCN1CCC(CNC(=O)c2cc(Cl)cc3c2OCCC3)C(O)C1` (stereo not shown) [Compound 36], the pA2 is reported as 9.8. `O=C(NCC1CCN(CCCOc2ccc(F)cc2)CC1O)c1cc(Cl)cc2c1OCC2` (stereo not shown) [Compound 14] gave a pA2 of 9.2. In the case of `CCCCN1CCC(O)(CNC(=O)c2cc(Cl)cc3c2OCCCO3)CC1.O=C(O)C(=O)O` [Compound 171], the pA2 is reported as <8. Work on `CCCCN1CCC(CNC(=O)c2cc(Cl)cc3c2OCCO3)C(O)C1.O=C(O)C(=O)O` (stereo not shown) [Compound 63] yielded a pA2 of 9.49. `Cl.O=C(O)CCCN1CCC(CNC(=O)c2cc(Cl)cc3c2OCCO3)C(O)C1` (stereo not shown) [Compound 94] showed a pA2 of 9.24. With `Cl.O=C(O)CCCN1CCC(CNC(=O)c2cc(Cl)cc3c2OCC3)C(O)C1` (stereo not shown) [Compound 32] the pA2 was <8. Molecule `CS(=O)(=O)NCCN1CCC(CNC(=O)c2cc(Cl)cc3c2OCC3)C(O)C1` (stereo not shown) [Compound 17] has a pA2 of 9.6. For `O=C(NCC1(O)CCN(CCOCCO)CC1)c1cc(Cl)cc2c1OCCO2.O=C(O)/C=C\C(=O)O` [Compound 107], the pA2 was <8. Molecule `COCCCN1CCC(CNC(=O)c2cc(Cl)cc3c2OCCO3)C(OC)C1.O=C(O)C(=O)O` (stereo not shown) [Compound 87] has a pA2 of 8.46. Work on `COC(=O)CCCN1CCC(CNC(=O)c2cc(Cl)cc3c2OCCO3)C(O)C1` (stereo not shown) [Compound 93] yielded a pA2 of 9.4. `Cl.O=C(O)CCCN1CCC(CNC(=O)c2cc(Cl)cc3c2OCCCCO3)C(O)C1` (stereo not shown) [Compound 194] showed a pA2 of 9. For `O=C(NCC1CCN(CCCO)CC1O)c1cc(Cl)cc2c1OCCCCO2` (stereo not shown) [Compound 192], the pA2 was 10.1. `COC(=O)CCCN1CCC(CNC(=O)c2cc(Cl)cc3c2OCC3)C(O)C1` (stereo not shown) [Compound 31] gave a pA2 of 9.4. With `N#CCCCN1CCC(CNC(=O)c2cc(Cl)cc3c2OCCCO3)C(O)C1` (stereo not shown) [Compound 126] the pA2 was 9.78. For `CS(=O)(=O)CCCN1CCC(O)(CNC(=O)c2cc(Cl)cc3c2OCCO3)CC1` [Compound 103], the pA2 was <8. In the case of `O=C(NCC1(O)CCN(CCC2OCCCO2)CC1)c1cc(Cl)cc2c1OCCO2` [Compound 117], the pA2 is reported as <8. Molecule `COCCCN1CCC(CNC(=O)c2cc(Cl)cc3c2OCCO3)C(O)C1.O=C(O)C(=O)O` (stereo not shown) [Compound 66] has a pA2 of 9.26. In the case of `COCCCN1CCC(O)(CNC(=O)c2cc(Cl)cc3c2OCCCO3)CC1.O=C(O)C(=O)O` [Compound 168], the pA2 is reported as <8. Molecule `O=C(NCC1CCN(CCCO)CC1O)c1cc(Cl)cc2c1OCCCO2` (stereo not shown) [Compound 144] has a pA2 of 10.4. Molecule `O=C(NCC1CCN(CCCO)CC1O)c1cc(Cl)cc2c1OCCO2` (stereo not shown) [Compound 68] has a pA2 of 9.04. With `O=C(CN1CCC(CNC(=O)c2cc(Cl)cc3c2OCC3)C(O)C1)c1ccccc1` (stereo not shown) [Compound 15] the pA2 was 8.4. `N#CCCCN1CCC(CNC(=O)c2cc(Cl)cc3c2OCCO3)C(O)C1.O=C(O)C(=O)O` (stereo not shown) [Compound 74] showed a pA2 of 9.22. `O=C(NCC1CCN(CCCOc2ccc(F)cc2)CC1O)c1cc(Cl)cc2c1OCC2` (stereo not shown) [Compound 13] showed a pA2 of 8.35. For `CC(=O)CCCN1CCC(O)(CNC(=O)c2cc(Cl)cc3c2OCCO3)CC1` [Compound 106], the pA2 was <8. Molecule `O=C(NCC1CCN(Cc2ccccc2)CC1O)c1cc(Cl)cc2c1OCCO2` (stereo not shown) [Compound 77] has a pA2 of 9.19. With `COC(=O)CCCN1CCC(CNC(=O)c2cc(Cl)cc3c2OCCC3)C(O)C1` (stereo not shown) [Compound 53] the pA2 was 9.5. For `COCCCN1CCC(O)(CNC(=O)c2cc(Cl)cc3c2OCCO3)CC1.O=C(O)C(=O)O` [Compound 101], the pA2 was <7. For `O=C(NCC1CCN(CCOCCO)CC1O)c1cc(Cl)cc2c1OCCCCO2` (stereo not shown) [Compound 190], the pA2 was 8.3. Molecule `O=C(NCC1CCN(Cc2ccccc2)CC1O)c1cc(Cl)cc2c1OCC2` (stereo not shown) [Compound 12] has a pA2 of 10.2. `N#CCCCN1CCC(CNC(=O)c2cc(Cl)cc3c2OCCCCO3)C(O)C1.O=C(O)C(=O)O` (stereo not shown) [Compound 188] gave a pA2 of 10.5. `CCCCN1CCC(CNC(=O)c2cc(Cl)cc3c2OCCCO3)C(OC)C1.O=C(O)C(=O)O` (stereo not shown) [Compound 130] showed a pA2 of 8.5. In the case of `COCCCN1CCC(CNC(=O)c2cc(Cl)cc3c2OCCCO3)C(OC)C1.O=C(O)C(=O)O` (stereo not shown) [Compound 129], the pA2 is reported as >8. For `COCCCN1CCC(CNC(=O)c2cc(Cl)cc3c2OCCCO3)C(O)C1` (stereo not shown) [Compound 120], the pA2 was 9.72. Molecule `Cl.O=C(O)CCCN1CCC(CNC(=O)c2cc(Cl)cc3c2OCCC3)C(O)C1` (stereo not shown) [Compound 54] has a pA2 of 9.8. `CCCCN1CCC(CNC(=O)c2cc(Cl)cc3c2OCCCCO3)C(O)C1.O` (stereo not shown) [Compound 182] gave a pA2 of 9.4. In the case of `O=C(CN1CCC(CNC(=O)c2cc(Cl)cc3c2OCCC3)C(O)C1)c1ccccc1.O=C(O)C(=O)O` (stereo not shown) [Compound 42], the pA2 is reported as 9.5.

Same assay, conditions: 5HT4 antagonistic data; isolated rat oesophageal tunica muscularis mucosae, method of Baxter et al.; read-out: pA2 (converted)
With `CCCCN1CC[C@@H](CNC(=O)c2cc(Cl)cc3c2OCCO3)[C@H](O)C1` (racemic) [Compound 64, (±)-(trans)-N-[(1-butyl-3-hydroxy-4-piperidinyl)methyl]-7-chloro-2,3-dihydro-1,4-benzodioxin-5-carboxamide] the Kb was 0.1 nM. In the case of `CC(=O)CCCN1CC[C@@H](CNC(=O)c2cc(Cl)cc3c2OCCO3)[C@H](O)C1` (racemic) [Compound 65, (±)-(trans)-7-chloro-2,3 dihydro-N-[[3-hydroxy-1-(4-oxopentyl)-4-piperidinyl]methyl]-1,4-benzodioxin-5-carboxamide], the Kb is reported as 0.363 nM. With `O=C(NC[C@@H]1CCN(CCNc2nccc(O)n2)C[C@H]1O)c1cc(Cl)cc2c1OCCO2` (relative stereo) [Compound 85, (trans)-7-chloro-2,3-dihydro-N-[[3-hydroxy-1-[2-[(4-hydroxy-2 pyrimidinyl)amino]-ethyl]-4-piperidinyl]methyl]-1,4-benzodioxin-5-carboxamide monohydrate] the Kb was 0.302 nM. With `COCCCN1CC[C@@H](CNC(=O)c2cc(Cl)cc3c2OCCO3)[C@H](O)C1` (racemic) [Compound 67, (±)-(trans)-7-chloro-2,3-dihydro-N-[[3-hydroxy-1-(3-methoxy-propyl)-4-piperidinyl]methyl]-1,4-benzodioxin-5-carboxamide] the Kb was 0.372 nM. For `Cc1nccnc1NCCCN1CC[C@@H](CNC(=O)c2cc(Cl)cc3c2OCCO3)[C@H](O)C1` (racemic) [Compound 84, (±)-(trans)-7-chloro-2,3-dihydro-N-[[3-hydroxy-1-[3-[(3-methyl-2-pyrazinyl)amino]propyl]-4-piperidinyl]methyl]-1,4-benzodioxin-5-carboxamide], the Kb was 0.0282 nM.

Test system: not given
Test: not given
Details: not given
With `CCCCN1CC[C@@H](CNC(=O)c2cc(Cl)cc3c2OCCO3)[C@H](O)C1` (racemic) [Compound 64, (±)-(trans)-N-[(1-butyl-3-hydroxy-4-piperidinyl)methyl]-7-chloro-2,3-dihydro-1,4-benzodioxin-5-carboxamide] the melting point was 112 °C.
